Experiments:
Details in all cases: 48 h
SEM cells [1] = assay: cell viability relative to DMSO control; higher = less cytotoxic
In short: (§1)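 Library compounds in DMSO were pin-dosed in an 11-point threefold series (47 μM to 0.79 nM) onto leukemia cells in 1536-well plates (5 μl). Plates held 500 cells/well of NOMO1 or SEM or 1000 cells/well of P12-Ichikawa, each adapted for at least four passages in each medium. Luminescence was read with CellTiter-Glo One after 48 h at 37°C. Viability means the per-plate percentage relative to DMSO wells, using cell-free wells as background.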

NOMO1 [2] = assay: AUC of viability dose-response curve (% viability x log10 dose units); higher = less sensitive
In short: (§2)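 Leukemia cells adapted to each medium were seeded at 500 or 1000 cells/well in 1536-well plates and dosed with library compounds in DMSO at 11 threefold doses from 47 μM to 0.79 nM for 48 h at 37°C. CellTiter-Glo One luminescence was normalised per plate to DMSO and cell-free wells, then fitted with a four-parameter log-logistic model over log10 doses. Area under the curve was taken from this fit by the trapezoidal rule, with curves above full viability scaled and curves failing quality control removed.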

P12-Ichikawa [3] = assay: as above
In short: as §2

SEM cells [4] = assay: as above
In short: as §2

NOMO1 [5] = assay: cell viability relative to DMSO control; higher = less cytotoxic
In short: as §1

P12-Ichikawa [6] = assay: as above
In short: as §1

O=C(/C=C/C=C/c1ccc2c(c1)OCO2)N1CCCCC1
cell viability [%], SEM cells [1]
Details	HPLM + 10% dialyzed FBS	RPMI 5 mM glucose + 10% dialyzed FBS
0.000781 µM	129	114
0.00234 µM	119	129
0.00702 µM	125	103
0.0211 µM	127	157
0.0632 µM	139	146
0.19 µM	128	129
0.569 µM	116	150
1.71 µM	133	131
5.12 µM	132	167
15.4 µM	119	140
46.1 µM	87.1	108

AUC of viability dose-response curve
Details	NOMO1 [2]	P12-Ichikawa [3]	SEM cells [4]
HPLM + 10% dialyzed FBS	429	446	466
RPMI 5 mM glucose + 10% FBS	444	463	448
RPMI 5 mM glucose + 10% dialyzed FBS	448	467	456

Cc1cc(-c2ncc(CC(=O)Nc3ccc(-c4cnccn4)cn3)cc2C)ccn1
AUC of viability dose-response curve
Details	NOMO1 [2]	P12-Ichikawa [3]	SEM cells [4]
HPLM + 10% dialyzed FBS	445	458	462
RPMI 5 mM glucose + 10% FBS	466	439	458
RPMI 5 mM glucose + 10% dialyzed FBS	447	456	457

NC(=O)c1ccc(-c2nc(-c3ccc4c(c3)OCO4)c(-c3ccccn3)[nH]2)cc1
cell viability [%]
Details	NOMO1 [5]	P12-Ichikawa [6]	SEM cells [1]
HPLM + 10% dialyzed FBS, 0.000781 µM	114	124	123
HPLM + 10% dialyzed FBS, 0.00234 µM	135	124	116
HPLM + 10% dialyzed FBS, 0.00702 µM	118	123	128
HPLM + 10% dialyzed FBS, 0.0211 µM	134	107	25.6
HPLM + 10% dialyzed FBS, 0.0632 µM	118	127	130
HPLM + 10% dialyzed FBS, 0.19 µM	132	123	121
HPLM + 10% dialyzed FBS, 0.569 µM	119	116	124
HPLM + 10% dialyzed FBS, 1.71 µM	123	114	125
HPLM + 10% dialyzed FBS, 5.12 µM	121	110	128
HPLM + 10% dialyzed FBS, 15.4 µM	120	112	129
HPLM + 10% dialyzed FBS, 46.1 µM	124	100	122
RPMI 5 mM glucose + 10% FBS, 0.000781 µM	121	122	93.4
RPMI 5 mM glucose + 10% FBS, 0.00234 µM	112	130	85.5
RPMI 5 mM glucose + 10% FBS, 0.00702 µM	127	116	98.2
RPMI 5 mM glucose + 10% FBS, 0.0211 µM	113	109	9.45
RPMI 5 mM glucose + 10% FBS, 0.0632 µM	126	118	89.5
RPMI 5 mM glucose + 10% FBS, 0.19 µM	111	111	86.8
RPMI 5 mM glucose + 10% FBS, 0.569 µM	124	108	92.1
RPMI 5 mM glucose + 10% FBS, 1.71 µM	109	116	93.7
RPMI 5 mM glucose + 10% FBS, 5.12 µM	108	100	102
RPMI 5 mM glucose + 10% FBS, 15.4 µM	125	107	86.3
RPMI 5 mM glucose + 10% FBS, 46.1 µM	112	93.8	66.9
RPMI 5 mM glucose + 10% dialyzed FBS, 0.000781 µM	117	–	108
RPMI 5 mM glucose + 10% dialyzed FBS, 0.00234 µM	108	–	123
RPMI 5 mM glucose + 10% dialyzed FBS, 0.00702 µM	117	–	110
RPMI 5 mM glucose + 10% dialyzed FBS, 0.0211 µM	114	–	18.9
RPMI 5 mM glucose + 10% dialyzed FBS, 0.0632 µM	116	–	120
RPMI 5 mM glucose + 10% dialyzed FBS, 0.19 µM	110	–	111
RPMI 5 mM glucose + 10% dialyzed FBS, 0.569 µM	119	–	128
RPMI 5 mM glucose + 10% dialyzed FBS, 1.71 µM	116	–	131
RPMI 5 mM glucose + 10% dialyzed FBS, 5.12 µM	109	–	123
RPMI 5 mM glucose + 10% dialyzed FBS, 15.4 µM	113	–	134
RPMI 5 mM glucose + 10% dialyzed FBS, 46.1 µM	105	–	102

AUC of viability dose-response curve
Details	HPLM + 10% dialyzed FBS	RPMI 5 mM glucose + 10% FBS	RPMI 5 mM glucose + 10% dialyzed FBS
NOMO1 [2]	473	466	472
P12-Ichikawa [3]	457	429	452

CC(=O)C1=C(O)C2(C)C(=CC1=O)Oc1c(C(C)=O)c(O)c(C)c(O)c12 (centres undefined)
cell viability [%], SEM cells [1]
Details	HPLM + 10% dialyzed FBS	RPMI 5 mM glucose + 10% FBS
0.000781 µM	83.1	99.1
0.00234 µM	120	145
0.00702 µM	123	123
0.0211 µM	123	129
0.0632 µM	124	128
0.19 µM	133	152
0.569 µM	118	153
1.71 µM	149	124
5.12 µM	133	136
15.4 µM	149	133
46.1 µM	124	130

AUC of viability dose-response curve
Details	NOMO1 [2]	P12-Ichikawa [3]	SEM cells [4]
HPLM + 10% dialyzed FBS	328	347	459
RPMI 5 mM glucose + 10% FBS	305	342	452
RPMI 5 mM glucose + 10% dialyzed FBS	321	375	448

CC1=CC=C(C=C1)N(C\C2=N\CCN2)C3=CC=CC(=C3)O
SEM cells [1], HPLM + 10% dialyzed FBS
Details	cell viability [%]
0.000781 µM	118
0.00234 µM	114
0.00702 µM	122
0.0211 µM	120
0.0632 µM	117
0.19 µM	126
0.569 µM	132
1.71 µM	131
5.12 µM	131
15.4 µM	131
46.1 µM	68.4

AUC of viability dose-response curve
Details	NOMO1 [2]	P12-Ichikawa [3]	SEM cells [4]
HPLM + 10% dialyzed FBS	352	473	454
RPMI 5 mM glucose + 10% FBS	403	452	464
RPMI 5 mM glucose + 10% dialyzed FBS	407	459	468

O=[S+]([O-])(O)c1ccc2cc(/N=N/c3cc([S+](=O)([O-])O)c4cccnc4c3O)ccc2c1
cell viability [%]
Details	NOMO1 [5]	P12-Ichikawa [6]	SEM cells [1]
HPLM + 10% dialyzed FBS, 0.000781 µM	114	123	115
HPLM + 10% dialyzed FBS, 0.00234 µM	122	123	120
HPLM + 10% dialyzed FBS, 0.00702 µM	133	125	120
HPLM + 10% dialyzed FBS, 0.0211 µM	136	110	28.8
HPLM + 10% dialyzed FBS, 0.0632 µM	129	126	133
HPLM + 10% dialyzed FBS, 0.19 µM	139	120	132
HPLM + 10% dialyzed FBS, 0.569 µM	122	124	126
HPLM + 10% dialyzed FBS, 1.71 µM	126	111	117
HPLM + 10% dialyzed FBS, 5.12 µM	127	108	120
HPLM + 10% dialyzed FBS, 15.4 µM	110	113	119
HPLM + 10% dialyzed FBS, 46.1 µM	44	58.8	39.9
RPMI 5 mM glucose + 10% FBS, 0.000781 µM	116	131	115
RPMI 5 mM glucose + 10% FBS, 0.00234 µM	106	124	124
RPMI 5 mM glucose + 10% FBS, 0.00702 µM	111	121	113
RPMI 5 mM glucose + 10% FBS, 0.0211 µM	109	109	17.8
RPMI 5 mM glucose + 10% FBS, 0.0632 µM	119	126	115
RPMI 5 mM glucose + 10% FBS, 0.19 µM	119	112	114
RPMI 5 mM glucose + 10% FBS, 0.569 µM	109	115	121
RPMI 5 mM glucose + 10% FBS, 1.71 µM	110	111	112
RPMI 5 mM glucose + 10% FBS, 5.12 µM	101	113	103
RPMI 5 mM glucose + 10% FBS, 15.4 µM	110	113	105
RPMI 5 mM glucose + 10% FBS, 46.1 µM	44.2	59.2	25.5
RPMI 5 mM glucose + 10% dialyzed FBS, 0.000781 µM	121	135	–
RPMI 5 mM glucose + 10% dialyzed FBS, 0.00234 µM	124	125	–
RPMI 5 mM glucose + 10% dialyzed FBS, 0.00702 µM	117	114	–
RPMI 5 mM glucose + 10% dialyzed FBS, 0.0211 µM	115	110	–
RPMI 5 mM glucose + 10% dialyzed FBS, 0.0632 µM	119	114	–
RPMI 5 mM glucose + 10% dialyzed FBS, 0.19 µM	113	122	–
RPMI 5 mM glucose + 10% dialyzed FBS, 0.569 µM	121	117	–
RPMI 5 mM glucose + 10% dialyzed FBS, 1.71 µM	119	114	–
RPMI 5 mM glucose + 10% dialyzed FBS, 5.12 µM	110	113	–
RPMI 5 mM glucose + 10% dialyzed FBS, 15.4 µM	106	101	–
RPMI 5 mM glucose + 10% dialyzed FBS, 46.1 µM	62.1	56.4	–

AUC of viability dose-response curve
Details	HPLM + 10% dialyzed FBS	RPMI 5 mM glucose + 10% FBS	RPMI 5 mM glucose + 10% dialyzed FBS
NOMO1 [2]	455	462	460
P12-Ichikawa [3]	462	463	458

Source: the supplement of paper PMC11451515
